Assay results as given in article PMC6321453, “Identification of Pinocembrin as an Anti-Glycation Agent and α-Glucosidase Inhibitor from Fingerroot (Boesenbergia rotunda): The Tentative Structure–Activity Relationship towards MG-Trapping Activity” (Molecules, 2018).

How the values were obtained:
[1] = tested on: MG-derived AGEs formation in BSA; assay: In vitro glycation of BSA by MG-BSA assay (fluorescent-AGEs formation); assay type: biochemical, bovine; conditions: compound 0.1 mM, BSA 10 mg/mL, MG 0.25 mM, PBS pH 7.4, 37 °C, 24 h; fluorescence ex 355/em 460 nm
Protocol: All isolated compounds were evaluated for their inhibitory effect on the fluorescent-AGEs formation after incubation with bovine serum albumin (BSA) and MG for 24 h (Figure 2).
Figure 2 Advanced glycation-end products (AGEs) inhibition activity of aminoguanidine (0.1 mM) and isolated compounds (0.1 mM) on MG-derived AGEs formation inhibition in BSA. The results are presented as mean ± SEM for n = 3. Different letters show significant differences analyzed by ANOVA with Duncan’s post hoc test (p < 0.05).
Glycated BSA was carried out according to our previous study. The mixture of bovine serum albumin (BSA, 10 mg/mL), isolated compound (0.1 mM in dimethyl sulfoxide, DMSO), and methylglyoxal (MG, 0.25 mM) in 0.1 M phosphate buffer solution (PBS, pH 7.4) was incubated at 37 °C for 24 h. The glycated BSA was monitored by a spectrofluorometer (Fluroskan Ascent FL, Thermo Scientific, Barrington, IL, USA) at the excitation wavelength of 355 nm, and an emission wavelength of 460 nm. Aminoguanidine hydrochloride (AG) was utilized as a positive control. The percentage inhibition of MG-derived AGE formation was calculated by utilizing the formula below:(1) Inhibition of AGEs formation (%)=(FC−FCB)−(FS−FSB)/FC−FCB×100 where FC and FCB are the fluorescent intensities of the control with and without MG, respectively. FS and FSB are the fluorescent intensities of the sample with and without MG, respectively.

[2] = Direct MG-trapping activity by HPLC; conditions: compound 0.1 mM, MG 0.1 mM, PBS pH 7.4, 37 °C, 24 h; HPLC of 2-MQ
Protocol: Figure 3 The percentage of MG-trapping abilities of isolated compounds (0.1 mM). The results are presented as the mean ± SEM for n = 3. Different letters show significant differences, as analyzed by ANOVA, with Duncan’s post hoc test (p < 0.05).
The ability of the isolated compounds to trap MG was carried out, according to our previous report. The reaction mixture of MG (0.1 mM), isolated compound (0.1 mM in DMSO) and 0.1 M PBS (pH 7.4) was incubated at 37 °C for 24 h. The quantitative amount of the remaining MG was determined by derivatization with o-phenylenediamine (o-PDA) to convert to 2-methylquinoxaline (2-MQ). Then, 2-MQ obtained was measured by HPLC using 5-methylquinoxaline (5-MQ) as an internal standard. The mixture comprising 100 µL of o-PDA (20 mM) and 100 µL of 5-MQ (5 mM) was added into the sample vials, and incubated at 25 °C for 30 min. HPLC analysis was performed on a Shimadzu HPLC system (binary pump; model LC-10A, an auto-injector; model SIL-10A, and a UV detector; model SPD-10A) equipped with an Inertsil ODS-3 V C18 column (4.6 × 150 mm, 5 μm particle diameter). The column was flushed with a mixture of 1:1 methanol–water at a flow rate of 1 mL/min, and a 10 μL of injection volume. The overall running time was 15 min, and the wavelength used for detection was 315 nm. The area under each chromatogram peak, 2-MQ and 5-MQ, was calculated with an LC solution program. Peak integrality proportions of 2-MQ to 5-MQ were utilized for quantitative examination. The amount of MG was calculated by utilizing the standard curve of 2-MQ/5-MQ proportion. AG was utilized as a positive control. The percentage MG-trapping was calculated utilizing the formula below:(2) %MG−trapping=100−[Amount of (MG in sample−MG in positive control)/Amount of MG in positive control×100]

rat intestinal maltase = assay: α-Glucosidase inhibitory activity and kinetic study, maltase; assay type: biochemical
Protocol: (§1) The α-glucosidase (from rat intestine) inhibitory effect was evaluated, utilizing our previous study. Rat intestinal maltase and sucrase, a crude enzyme solution, was prepared from rat intestinal acetone powder. A solution of rat intestinal acetone powder (1 g) in 0.9% NaCl solution (30 mL) was centrifuged (12,000 rpm) for 30 min, and then the aliquot obtained was used for the assay. The mixture of 10 μL of isolated compounds (1 mg/mL in DMSO), 30 μL of the phosphate buffer (0.1 M, pH 6.9), and 20 μL of the substrate solution (10 mM for maltose and 100 mM for sucrose in phosphate buffer) was added to a glucose assay kit (80 μL) and the crude enzyme solution (20 μL), which then was incubated at 37 °C for 10 min and 40 min for maltose and sucrose, respectively. The enzymatic activity was measured at 503 nm by using a microplate reader, model 3550 UV. The percentage inhibition was calculated by [(Ac − As)/Ac] × 100, where Ac is the absorbance of the control, and As is the absorbance in the presence of sample. The results were reported as the IC50 value, and the experiment was carried out in triplicate. Acarbose® was used as a standard control.
(§2) The kinetic analysis of pinocembrin was determined by using an increasing concentration of substrates maltose (2–10 mM) and sucrose (20–100 mM), and a Lineweaver–Burk plot was performed to determine the type of inhibition. The secondary plot was utilized to determine the Ki and Ki′ values, which were replotted between the slope and intercept from the Lineweaver–Burk plot vs the various concentrations of pinocembrin.

rat intestinal sucrase = molecular target: T1, rat intestinal sucrase (Rattus norvegicus, UniProt P23739); assay: α-Glucosidase inhibitory activity and kinetic study, sucrase; assay type: biochemical
T1 construct: a crude enzyme solution, was prepared from rat intestinal acetone powder; from tissue; host or cells: rat intestine (acetone powder, crude extract)
T1 sequence (P23739 whole entry): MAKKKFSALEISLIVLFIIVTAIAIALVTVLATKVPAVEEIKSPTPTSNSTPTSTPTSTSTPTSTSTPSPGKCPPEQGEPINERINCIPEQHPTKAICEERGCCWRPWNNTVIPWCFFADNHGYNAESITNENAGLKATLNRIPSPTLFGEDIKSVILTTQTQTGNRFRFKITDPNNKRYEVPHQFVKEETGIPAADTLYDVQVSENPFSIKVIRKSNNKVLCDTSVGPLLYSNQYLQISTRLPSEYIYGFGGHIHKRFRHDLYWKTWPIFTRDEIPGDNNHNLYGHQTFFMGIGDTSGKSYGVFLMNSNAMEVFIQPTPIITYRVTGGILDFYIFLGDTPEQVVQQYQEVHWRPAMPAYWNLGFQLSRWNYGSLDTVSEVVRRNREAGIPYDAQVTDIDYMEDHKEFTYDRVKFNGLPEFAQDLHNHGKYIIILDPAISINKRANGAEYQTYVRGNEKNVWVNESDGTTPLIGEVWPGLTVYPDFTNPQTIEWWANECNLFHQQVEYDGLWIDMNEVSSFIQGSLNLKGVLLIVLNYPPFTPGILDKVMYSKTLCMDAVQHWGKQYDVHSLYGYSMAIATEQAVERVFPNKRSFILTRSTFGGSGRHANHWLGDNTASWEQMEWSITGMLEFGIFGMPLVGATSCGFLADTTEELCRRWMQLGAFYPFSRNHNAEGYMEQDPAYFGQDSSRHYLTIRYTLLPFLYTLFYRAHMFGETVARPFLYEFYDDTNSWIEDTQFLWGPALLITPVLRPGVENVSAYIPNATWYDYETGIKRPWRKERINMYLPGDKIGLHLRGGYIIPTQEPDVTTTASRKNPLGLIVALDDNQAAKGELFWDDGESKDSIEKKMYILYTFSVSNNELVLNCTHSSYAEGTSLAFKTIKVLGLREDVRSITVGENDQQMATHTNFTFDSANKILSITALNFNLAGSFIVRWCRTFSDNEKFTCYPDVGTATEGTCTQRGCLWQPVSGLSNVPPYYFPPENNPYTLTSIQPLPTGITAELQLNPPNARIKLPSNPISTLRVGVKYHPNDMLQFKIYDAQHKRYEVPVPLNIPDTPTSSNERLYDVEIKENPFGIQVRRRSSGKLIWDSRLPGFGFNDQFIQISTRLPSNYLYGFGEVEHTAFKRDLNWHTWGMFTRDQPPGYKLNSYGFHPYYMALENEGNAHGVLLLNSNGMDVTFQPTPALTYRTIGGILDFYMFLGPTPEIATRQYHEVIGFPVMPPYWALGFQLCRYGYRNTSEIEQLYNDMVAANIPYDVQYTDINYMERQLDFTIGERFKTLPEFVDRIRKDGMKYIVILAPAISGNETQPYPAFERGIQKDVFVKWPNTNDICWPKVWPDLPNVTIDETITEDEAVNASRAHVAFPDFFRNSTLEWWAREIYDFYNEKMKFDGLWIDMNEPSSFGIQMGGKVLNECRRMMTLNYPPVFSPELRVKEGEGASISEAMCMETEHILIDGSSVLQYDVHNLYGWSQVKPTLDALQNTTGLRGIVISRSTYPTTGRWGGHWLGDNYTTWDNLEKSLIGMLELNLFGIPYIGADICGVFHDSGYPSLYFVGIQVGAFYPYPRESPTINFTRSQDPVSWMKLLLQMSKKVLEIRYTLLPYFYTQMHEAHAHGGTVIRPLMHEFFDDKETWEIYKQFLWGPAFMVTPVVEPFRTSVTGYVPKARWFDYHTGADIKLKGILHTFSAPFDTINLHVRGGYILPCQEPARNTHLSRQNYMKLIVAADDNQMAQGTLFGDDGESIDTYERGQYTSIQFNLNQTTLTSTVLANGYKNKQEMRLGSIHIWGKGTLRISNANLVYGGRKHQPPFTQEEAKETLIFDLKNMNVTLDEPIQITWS
Protocol: as §1, §2

[3] = Direct MG-trapping activity by HPLC; conditions: against methylglyoxal

With `COc1cc(O)cc(O)c1C(=O)/C=C/c1ccccc1` [compound 4, cardamomin] the “Inhibition of MG-derived AGEs formation” value [1] was 44% and the “MG-trapping activity, percentage related to AG (100%)” value [2] was 28%.

For `COc1cc(/C=C/c2ccccc2)oc(=O)c1` [compound 8, demethoxyyangonin], the “Inhibition of MG-derived AGEs formation” value [1] was 46% and the “MG-trapping activity, percentage related to AG (100%)” value [2] was 23%.

With `COc1cc(O)c2c(c1)O[C@H](c1ccccc1)CC2=O` [compound 2, pinostrobin] the “Inhibition of MG-derived AGEs formation” value [1] was 19% and the “MG-trapping activity, percentage related to AG (100%)” value [2] was 5%.

With `Cl.N=C(N)NN` [AG, Aminoguanidine hydrochloride, reference compound] the “Inhibition of MG-derived AGEs formation” value [1] was 28% and the “MG-trapping activity, percentage related to AG (100%)” value [2] was 100%.

In the case of alpinetin [compound 3], the “Inhibition of MG-derived AGEs formation” value [1] is reported as 50% and the “MG-trapping activity, percentage related to AG (100%)” value [2] is reported as 14%.

With `COc1cc2c(c(O)c1C(=O)/C=C/c1ccccc1)C=CC(C)(CCC=C(C)C)O2` (stereo not drawn) [compound 5, boesenbergin B] the “Inhibition of MG-derived AGEs formation” value [1] was 39% and the “MG-trapping activity, percentage related to AG (100%)” value [2] was 19%.

In the case of `COc1cc(O)cc(O)c1C(=O)C1C(CC=C(C)C)C(C)=CCC1c1ccccc1` (stereo not drawn) [compound 7, isopanduratin A], the “Inhibition of MG-derived AGEs formation” value [1] is reported as 36% and the “MG-trapping activity, percentage related to AG (100%)” value [2] is reported as 9%.

For `O=C1C[C@@H](c2ccccc2)Oc2cc(O)cc(O)c21` [compound 1, pinocembrin], the “Inhibition of MG-derived AGEs formation” value [1] was 38%, the “MG-trapping activity, percentage related to AG (100%)” value [2] was 109% and the “Inhibition Type” value (rat intestinal maltase; maltase, Lineweaver–Burk plot) was “mixed-type”. It also gave a Ki (rat intestinal maltase; maltase, dissociation constant of EI complex, secondary plot of slope) of 93 µM, a Ki (rat intestinal maltase; maltase, dissociation constant of ESI complex, secondary plot of intercept) of 138 µM and an IC50 (rat intestinal maltase; rat intestinal maltase, substrate maltose, read-out: IC50 against maltase) of 350 ± 21 µM. For the same molecule, the IC50 (rat intestinal sucrase; rat intestinal sucrase, substrate sucrose, read-out: IC50 against sucrose) was 390 ± 20 µM, the “Inhibition Type” value (rat intestinal sucrase; sucrase, Lineweaver–Burk plot) was “mixed-type inhibition” and the Ki (rat intestinal sucrase; sucrase, dissociation constant of EI complex) was 51 µM. It also gave a Ki (rat intestinal sucrase; sucrase, dissociation constant of ESI complex) of 253 µM and an EC50 [3] of 63.2 ± 10.1 µM.

With `COc1cc(O)c(C(=O)[C@@H]2[C@H](CC=C(C)C)C(C)=CC[C@H]2c2ccccc2)c(O)c1` [compound 6, panduratin A] the “Inhibition of MG-derived AGEs formation” value [1] was 43% and the “MG-trapping activity, percentage related to AG (100%)” value [2] was 60%.
